Data from patent publication US20140234420A1, “Method of Treating Skin Disorders using Nanoscale Delivery Devices and Transdermal Enhancing Compositions” (priority 2008, published 2014).
Converted amounts (≈) assume the structure as drawn. Structures can show the parent of a compound that is named as a salt. Where two headings read alike, the source gives them in different places.

Experiments:
[1] = Size, polydispersity index and zeta potential determination (Malvern Zetasizer); assay type: physicochemical
Description: Nanoparticles (2 mg) and micelles (2 mg) were dispersed in 2 ml of purified water and bath sonicated for 1 min. They were then centrifuged at 10000 rpm for 5 min and diluted 50 times with distilled water. About 50 μl of the nanoemulsion was taken and dilated to 1 mL using distilled water. A liposome dispersion was diluted 100 times using purified water and probe sonicated for 1 min using 20% amplitude. The sizes, polydispersity indexes, and zeta potentials, were measured with a Malvern Zetasizer.
Nanoparticles (2 mg) were dispersed in 1 ml of purified water and probe sonicated for 1 min using 20% amplitude. Subsequently, the sonicated particles were diluted 10 times with distilled water and properties were measured using a Malvern Zetasizer. […]
Size, polydispersity index and zeta potential determination: nanoparticles (50 μl), nanoemulsions (squalene) (50 μl) and nanomicelles (2 mg) were dispersed in 2 ml of purified water separately, vortex for 1 min. Further, the size, polydispersity index and zeta potential were measured with a Malvern Zetasizer.

[2] = cited from earlier work
[3] = Encapsulation (entrapment) efficiency; assay type: physicochemical; settings: for % EE: drug encapsulated in zein/lecithin/squalene nanoemulsions
Description: Detection wavelength: 340 nm; Injection volume: 50 μl: Run time: 10 min. […] The resulting solution was centrifuged at 5000 rpm for 5 min. […] The resulting solution was centrifuged 5000 rpm for 5 min. […] In vitro release of MTX from the formulations in phosphate buffer (pH 7.4) was studied using UV-spectrophotometry. […] Benzoyl peroxide content was measured using HPLC.

[4] = cited from earlier work; remark: listed apart in the source
[5] = sebum flux from citrate-phosphate buffer (pH 5.5), 37° C.
Description: The supporting membrane (polycarbonate membrane, pore size of 0.4 μm) of each insert was loaded with 2.5±0.2 mg of the artificial sebum. […] The study was carried out in an incubator at 125 rpm under 37° C. The complete receptor medium was replaced with fresh medium at predetermined intervals, i.e., 10, 20, 30, 40, 50, 60, 75, 90, 120 and 180 minutes after treatment. […] The cumulative quantity of drug in the receiver compartment was plotted as a function of time. The flux value for a given experiment was obtained from the linear slope (steady-state portion) of the cumulative amount of drug permeated versus time curve.

[6] = hamster ear in vitro, 24 hrs treatment
From the text: The excised hamster ear was placed on the Franz diffusion cell by exposing ventral surface towards the donor compartment.

[7] = system: scleroderma patients; settings: one course of systemic treatment (MTX 15-25 mg/weekly for 6 months); cited from earlier work
[8] = Stability (half-life) of retinol, free and encapsulated; assay type: physicochemical
From the text: Encapsulation of retinol into the zein nanoparticles and micelles improved the stability of retinol by 2 to 5 fold (see Table 5).

[9] = Dispersibility in aqueous solution; assay type: physicochemical
[10] = compound encapsulated in zein micelles
[11] = compound encapsulated in zein core-shell particles
[12] = drug encapsulated in zein/lecithin/squalene nanoemulsions
[13] = molecules encapsulated in nanoemulsions (Table 23)

CCN(CC)c1ccc2nc3c4ccccc4c(=O)cc-3oc2c1 [Nile Red]
PI [1, 10]: 0.21 ± 0.08 | Particle Size [1, 10]: 165 ± 7 nm | Log P ([2]; compounds encapsulated in zein micelles (Table 2)): 5 | Encapsulation Efficiency [3, 10]: 77 ± 11%

COc1cccc2c1C(=O)c1c(O)c3c(c(O)c1C2=O)C[C@@](O)(C(=O)CO)C[C@@H]3O[C@H]1C[C@H](N)[C@H](O)[C@H](C)O1 [Doxorubicin-HCl]
Particle Size [1, 11]: 171 ± 45 nm | Log P ([2]; compounds encapsulated in zein core-shell particles (Table 1)): −0.5 | Encapsulation Efficiency [3, 11]: 61 ± 16%

O=C(OOC(=O)c1ccccc1)c1ccccc1 [Benzoyl peroxide, Benzoyl Peroxide]
Particle Size [1, 12]: 208.5 ± 6.7 nm | Log P [2, 13]: 3.48 | % EE [3]: 83.66 ± 3.81% | Solubility in ether and chloroform [4]: Soluble | Solubility in water [4]: insoluble

CC1=C(/C=C/C(C)=C/C=C/C(C)=C/C(=O)O)C(C)(C)CCC1 [Retinoic acid]
Particle Size [1, 12]: 152 ± 3.6 nm | Log P [2, 13]: 6.83 | Flux [5]: 0.154 ± 0.003 μg/cm^2/min | Solubility in fat [4]: soluble | Solubility in water [4]: nearly insoluble

CC1=C(/C=C/C(C)=C/C=C/C(C)=C/C(=O)O)C(C)(C)CCC1 [Retinoic acid Solution]
% Applied dose in Cartilage [6]: 2.409% | % Applied dose in Dermis [6]: 1.444% | % Applied dose in Dorsal [6]: 4.713% | % Applied dose in Sebaceous gland [6]: 0.06619% | % Applied dose in SC ([6]; 100 μg retinoic acid): 1.692%

CN(Cc1cnc2nc(N)nc(N)c2n1)c1ccc(C(=O)N[C@@H](CCC(=O)O)C(=O)O)cc1 [Methotrexate]
Patients who reached a remission status [7]: 51% | Particle Size [1, 12]: 214.3 ± 8.4 nm | Log P [2]: −1.8 | Log P [2, 13]: −1.8 | % EE [3]: 87.60 ± 2.1% | Solubility in water ([4]; at 19° C.): < 0.1 g/100 ml | Solubility in DMSO [4]: 100 mM (≈ 45.4 mg/mL)

COc1cccc2c1C(=O)c1c(O)c3c(c(O)c1C2=O)C[C@@](O)(C(=O)CO)C[C@@H]3O[C@H]1C[C@H](N)[C@H](O)[C@H](C)O1 [Doxorubicin]
PI [1, 10]: 0.18 ± 0.06 | Particle Size [1, 10]: 153 ± 3 nm | Encapsulation Efficiency [3, 10]: 92 ± 6%

CC1=C(/C=C/C(C)=C/C=C/C(C)=C/CO)C(C)(C)CCC1 [Retinol]
half-life ([8]; liquid state, Dark): 20.8 ± 2.1 h | half-life ([8]; liquid state, Light): 16.1 ± 1.9 h | half-life ([8]; solid state, Dark): 63 ± 2.7 h | half-life ([8]; solid state, Light): 52.8 ± 3.5 h | PI [1, 10]: 0.27 ± 0.06 | Particle Size [1, 10]: 191 ± 6 nm | Encapsulation Efficiency [3, 10]: 83 ± 3.1% | Dispersibility in aqueous solution / water [9]: not dispersible in water | Solubility in fat [4]: soluble | Solubility in water [4]: nearly insoluble

COc1cc(/C=C/C(=O)CC(=O)/C=C/c2ccc(O)c(OC)c2)ccc1O [Curcumin]
PI [1, 10]: 0.25 ± 0.03 | Particle Size [1, 10]: 124 ± 4 nm | Encapsulation Efficiency [3, 10]: 95 ± 4%
